Results on one substance are retold here after patent publication US12312376B2 (priority 2020, dated 2025).

Data set [1] can be described thus: Intranasal safety profile of rintatolimod compared with EC90. Type of data set: in vivo, humans. The note with it: dose concentration 2500 μg/ml (45×EC90).
The nature of data set [2]: Clinical trials of tdsRNA (safety). Type of data set: in vivo. The source says: tdsRNA has undergone extensive clinical and preclinical testing. […] Favorable safety profiles have been seen for intraperitoneal, intravenous, and intranasal routes of administration of tdsRNA.
Data set [3] concerns normal, human-derived tracheal/bronchial epithelial (TBE) cells.
Where [4] appears, read: over 1,200 patients, over 100,000 doses administered.

Read-outs that look alike come from different tables or passages of the source.

In the case of rIn•r(C12U)n [Rintatolimod], the “Intranasal tolerability in humans” value in data set [1] is listed as “well tolerated in humans”. In data set [2] (setting [4]), the drug-related deaths result was “no drug-related deaths”. In addition, in data set [2] (setting [4]), the “tolerability in clinical trials” value was “generally well-tolerated”. In data set [2] (two placebo-controlled, randomized studies), the “serious adverse events compared to placebo” value is given as “no increase in serious adverse events compared to placebo”. For the same substance, the cellular toxicity in data set [3] (0.5 mg/mL) and in data set [3] (1.5 mg/mL) was 0% throughout. The cytotoxic in data set [3] (4.5 mg/mL) is listed as 12%; in data set [3] (10 mg/mL), 47%.
